From patent US20130302442A1, “METHODS OF USING (4S,4AS,5AR,12AS)-4-DIMETHYLAMINO-3,10,12,12A-TETRAHYDROXY-7-[(METHOXY(METHYL)AMINO)-METHYL]-1,11-DIOXO-1,4,4A,5,5A,6,11,12A-OCTAHYDRO-NAPHTHACENE-2-CARBOXYLIC ACID AMIDE” (priority 2012, published 2013)
≈ marks a conversion by molar mass, not a printed value. Read-outs that look alike come from different tables or passages of the source.

How the values were obtained:
[1] = tested on: Bifidobacterium bifidum; assay: In vitro MIC testing against anaerobic bacteria; type: cell-based; conditions: ATCC15696; Bifidobacterium bifidum 3965, ATCC 15696
[2] = tested on: Bifidobacterium brevi; assay: In vitro MIC testing against anaerobic bacteria; type: cell-based; conditions: ATCC15698; Bifidobacterium brevi 3967, ATCC 15698
[3] = tested on: Bifidobacterium infantis; assay: In vitro MIC testing against anaerobic bacteria; type: cell-based; conditions: ATCC15702; Bifidobacterium infantis 3966, ATCC 15702
[4] = tested on: Clostridium perfringens; assay: microbe, parasite or virus in culture; type: cell-based
[5] = tested on: Lactobacillus acidophilus; assay: In vitro MIC testing against anaerobic bacteria; type: cell-based; conditions: Lactobacillus acidophilus 0681
[6] = tested on: Lactobacillus casei; assay: In vitro MIC testing against anaerobic bacteria; type: cell-based; conditions: Lacticaseibacillus casei, ATCC393; Lactobacillus casei 1722, ATCC 393
[7] = tested on: Lactobacillus plantarum; assay: In vitro MIC testing against anaerobic bacteria; type: cell-based; conditions: Lactiplantibacillus plantarum, ATCC39268; Lactobacillus plantarum 2791, ATCC 39268
[8] = tested on: Propionibacterium acnes; assay: In vitro MIC testing against anaerobic bacteria; type: cell-based; conditions: Cutibacterium acnes, read-out: MIC
[9] = tested on: Streptococcus intermedius; assay: In vitro MIC testing against anaerobic bacteria; type: cell-based; conditions: ATCC27335; Streptococcus intermedius 1203, ATCC 27335
[10] = tested on: Bacteroides ovatus; assay: In vitro MIC testing against anaerobic bacteria; type: cell-based
[11] = tested on: Bacteroides thetaiotaomicron; assay: In vitro MIC testing against anaerobic bacteria; type: cell-based
[12] = tested on: Bacteroides vulgatus; assay: In vitro MIC testing against anaerobic bacteria; type: cell-based
[13] = tested on: Eikenella corrodens; assay: In vitro MIC testing against anaerobic bacteria; type: cell-based; conditions: Eikenella corrodens, ATCC43278
[14] = tested on: Fusobacterium necrophorum; assay: In vitro MIC testing against anaerobic bacteria; type: cell-based; conditions: ATCC25286; Fusobacterium necrophorum 3963, ATCC 25286; read-out: MIC
[15] = tested on: Fusobacterium nucleatum; assay: In vitro MIC testing against anaerobic bacteria; type: cell-based; conditions: ATCC25586; Fusobacterium nucleatum 3962, ATCC 25586; read-out: MIC
[16] = tested on: Porphyromonas asaccharolytica; assay: In vitro MIC testing against anaerobic bacteria; type: cell-based
[17] = tested on: Prevotella spp.; assay: In vitro MIC testing against anaerobic bacteria; type: cell-based
[18] = tested on: Veillonella parvula; assay: In vitro MIC testing against anaerobic bacteria; type: cell-based; conditions: ATCC17745; Veillonella parvula 1272, ATCC 17745
[19] = tested on: P. granulosum; assay: In vitro MIC testing, antibacterial spectrum of activity; type: cell-based; conditions: P. granulosum [clinical isolates] (3 isolates)
[20] = tested on: P. avidum; assay: as above; type: cell-based; conditions: P. avidum [clinical isolates] (4 isolates)
[21] = tested on: S. epidermidis; assay: as above; type: cell-based, Staphylococcus epidermidis; conditions: for MIC50 / MIC90: Staphylococcus epidermidis; for MIC50: read-out: MIC50; for MIC90: read-out: MIC90
[22] = tested on: S. pneumoniae; assay: as above; type: cell-based, Streptococcus pneumoniae
[23] = tested on: S. pyogenes; assay: as above; type: cell-based
[24] = tested on: S. agalactiae; assay: as above; type: cell-based
[25] = tested on: S. haemolyticus; assay: as above; type: cell-based; conditions: S. haemolyticus (33 isolates)
[26] = tested on: Streptococcus spp. [Group C]; assay: as above; type: cell-based; conditions: Streptococcus spp. [Group C] (30 isolates); read-out: MIC50
[27] = tested on: E. faecium; assay: as above; type: cell-based; conditions: for MIC / MIC50 / MIC90: Enterococcus faecium; for MIC50: read-out: MIC50; for MIC90: read-out: MIC90
[28] = tested on: E. coli; assay: as above; type: cell-based; conditions: E. coli [tetS] (7 isolates)
[29] = tested on: K. pneumoniae; assay: as above; type: cell-based; conditions: Klebsiella pneumoniae
[30] = tested on: P. mirabilis; assay: as above; type: cell-based; conditions: Proteus mirabilis; P. mirabilis (30 isolates)
[31] = tested on: P. aeruginosa; assay: as above; type: cell-based; conditions: Pseudomonas aeruginosa; P. aeruginosa (11 isolates)
[32] = S. epidermidis [MRSE] (32 isolates)
[33] = S. epidermidis [MSSE] (31 isolates)

Question: How did the MIC [1] turn out when CN(C)c1ccc(O)c2c1C[C@H]1C[C@H]3[C@H](N(C)C)C(O)=C(C(N)=O)C(=O)[C@@]3(O)C(O)=C1C2=O [Minocycline, minocycline] was run?
Answer: The MIC was 0.25 µg/mL (≈ 0.546 µM).

Question: What about the MIC [2] of the same molecule?
Answer: Its MIC is 0.25 µg/mL (≈ 0.546 µM).

Question: And the MIC [3]?
Answer: The MIC was 0.25 µg/mL (≈ 0.546 µM).

Question: And the MIC [4]?
Answer: The MIC was 8 µg/mL (≈ 17.5 µM).

Question: And the MIC [5]?
Answer: The MIC was 0.5 µg/mL (≈ 1.09 µM).

Question: And the MIC [6]?
Answer: Its MIC is 0.5 µg/mL (≈ 1.09 µM).

Question: And the MIC [7]?
Answer: The MIC was 0.5 µg/mL (≈ 1.09 µM).

Question: And the MIC ([8]; ATCC11829, Propionibacterium acnes 1286, ATCC 11829)?
Answer: Its MIC is 0.5 µg/mL (≈ 1.09 µM).

Question: And the MIC ([8]; Propionibacterium acnes 1713)?
Answer: Its MIC is 0.06 µg/mL (≈ 0.131 µM).

Question: And the MIC [9]?
Answer: The MIC was 0.25 µg/mL (≈ 0.546 µM).

Question: And the MIC ([10]; Bacteroides ovatus 3503, read-out: MIC)?
Answer: The MIC was 4 µg/mL (≈ 8.74 µM).

Question: What about the MIC ([10]; Bacteroides ovatus 3508, read-out: MIC) of the same molecule?
Answer: The MIC was 0.03 µg/mL (≈ 0.0656 µM).

Question: And the MIC ([11]; Bacteroides thetaiotaomicron 3399)?
Answer: Its MIC is 0.03 µg/mL (≈ 0.0656 µM).

Question: What about the MIC ([11]; Bacteroides thetaiotaomicron 3496) of the same molecule?
Answer: Its MIC is 8 µg/mL (≈ 17.5 µM).

Question: What about the MIC ([12]; Bacteroides vulgatus 3494) of the same molecule?
Answer: The MIC was 8 µg/mL (≈ 17.5 µM).

Question: What about the MIC ([12]; Phocaeicola vulgatus, Bacteroides vulgatus 3389, read-out: MIC) of the same molecule?
Answer: The MIC was 8 µg/mL (≈ 17.5 µM).

Question: What about the MIC [13] of the same molecule?
Answer: Its MIC is 0.03 µg/mL (≈ 0.0656 µM).

Question: And the MIC [14]?
Answer: The MIC was 0.06 µg/mL (≈ 0.131 µM).

Question: And the MIC [15]?
Answer: The MIC was 0.06 µg/mL (≈ 0.131 µM).

Question: And the MIC ([16]; Porphyromonas asaccharolytica 3552, read-out: MIC)?
Answer: The MIC was 8 µg/mL (≈ 17.5 µM).

Question: And the MIC ([16]; Porphyromonas asaccharolytica 3557, read-out: MIC)?
Answer: Its MIC is 4 µg/mL (≈ 8.74 µM).

Question: And the MIC ([17]; Prevotella spp. 3564)?
Answer: The MIC was 0.25 µg/mL (≈ 0.546 µM).

Question: What about the MIC ([17]; Prevotella spp. 3568) of the same molecule?
Answer: The MIC was 0.25 µg/mL (≈ 0.546 µM).

Question: What about the MIC [18] of the same molecule?
Answer: Its MIC is 0.5 µg/mL (≈ 1.09 µM).

Question: What about the “MIC Range” value [19] of the same molecule?
Answer: Its value is 0.25 to 0.5 µg/mL.

Question: And the “MIC Range” value [20]?
Answer: Its value is 0.25 to 2 µg/mL.

Question: And the “MIC Range” value [21, 32]?
Answer: The value was 0.06 to 0.5 µg/mL.

Question: And the “MIC Range” value [21, 33]?
Answer: Its value is 0.06 to 0.25 µg/mL.

Question: What about the MIC50 [21, 32] of the same molecule?
Answer: The MIC50 was 0.12 µg/mL (≈ 0.262 µM).

Question: What about the MIC90 [21, 32] of the same molecule?
Answer: Its MIC90 is 0.25 µg/mL (≈ 0.546 µM).

Question: And the MIC50 [21, 33]?
Answer: Its MIC50 is 0.06 µg/mL (≈ 0.131 µM).

Question: And the MIC90 [21, 33]?
Answer: The MIC90 was 0.25 µg/mL (≈ 0.546 µM).

Question: What about the “MIC Range” value ([22]; S. pneumoniae [tetS] (5 isolates)) of the same molecule?
Answer: Its value is 0.25-0.25 μg/mL.

Question: What about the MIC50 ([22]; Streptococcus pneumoniae, S. pneumoniae [PSSP] (32 isolates), read-out: MIC50) of the same molecule?
Answer: The MIC50 was 0.06 µg/mL (≈ 0.131 µM).

Question: And the MIC90 ([22]; Streptococcus pneumoniae, S. pneumoniae [PSSP] (32 isolates), read-out: MIC90)?
Answer: Its MIC90 is 0.12 µg/mL (≈ 0.262 µM).

Question: And the “MIC Range” value ([23]; S. pyogenes [tetS] (5 isolates))?
Answer: The value was 0.25 to 0.5 µg/mL.

Question: And the MIC ([23]; Streptococcus pyogenes, S. pyogenes strain PBS # 330, tetO)?
Answer: Its MIC is 8 µg/mL (≈ 17.5 µM).

Question: What about the MIC50 ([23]; Streptococcus pyogenes, S. pyogenes (32 isolates), read-out: MIC50) of the same molecule?
Answer: Its MIC50 is 0.06 µg/mL (≈ 0.131 µM).

Question: What about the “MIC Range” value ([24]; S. agalactiae [tetS] (3 isolates)) of the same molecule?
Answer: Its value is 0.5-0.5 μg/mL.

Question: And the MIC50 ([24]; Streptococcus agalactiae, S. agalactiae (31 isolates), read-out: MIC50)?
Answer: The MIC50 was 16 µg/mL (≈ 35 µM).

Question: What about the MIC90 ([24]; Streptococcus agalactiae, S. agalactiae (31 isolates), read-out: MIC90) of the same molecule?
Answer: Its MIC90 is 16 µg/mL (≈ 35 µM).

Question: And the “MIC Range” value [25]?
Answer: Its value is “≦0.03-0.5 μg/mL”.

Question: What about the MIC50 ([25]; Staphylococcus haemolyticus, read-out: MIC50) of the same molecule?
Answer: Its MIC50 is 0.06 µg/mL (≈ 0.131 µM).

Question: And the MIC90 ([25]; Staphylococcus haemolyticus, read-out: MIC90)?
Answer: The MIC90 was 0.5 µg/mL (≈ 1.09 µM).

Question: What about the MIC50 [26] of the same molecule?
Answer: The MIC50 was 0.06 µg/mL (≈ 0.131 µM).

Question: And the “MIC Range” value ([27]; E. faecium [tetR] (6 isolates))?
Answer: Its value is 2 to 32 µg/mL.

Question: And the “MIC Range” value ([27]; E. faecium [tetS] (4 isolates))?
Answer: Its value is 0.25 to 0.5 µg/mL.

Question: What about the MIC ([27]; E. faecium strain PBS # 965, tetM) of the same molecule?
Answer: The MIC was 8 µg/mL (≈ 17.5 µM).

Question: What about the MIC ([27]; E. faecium strain PBS # 1323, tetK) of the same molecule?
Answer: Its MIC is 2 µg/mL (≈ 4.37 µM).

Question: What about the MIC ([27]; E. faecium strain PBS # 1324, tetO) of the same molecule?
Answer: The MIC was 2 µg/mL (≈ 4.37 µM).

Question: What about the MIC50 ([27]; E. faecium [VRE] (30 isolates)) of the same molecule?
Answer: Its MIC50 is 0.25 µg/mL (≈ 0.546 µM).

Question: What about the MIC90 ([27]; E. faecium [VRE] (30 isolates)) of the same molecule?
Answer: The MIC90 was 16 µg/mL (≈ 35 µM).

Question: What about the MIC50 ([27]; E. faecium [VSE] (32 isolates)) of the same molecule?
Answer: Its MIC50 is 0.12 µg/mL (≈ 0.262 µM).

Question: What about the MIC90 ([27]; E. faecium [VSE] (32 isolates)) of the same molecule?
Answer: Its MIC90 is 16 µg/mL (≈ 35 µM).

Question: What about the “MIC Range” value [28] of the same molecule?
Answer: Its value is 0.5 to 4 µg/mL.

Question: And the MIC50 ([29]; K. pneumoniae (31 isolates))?
Answer: Its MIC50 is 4 µg/mL (≈ 8.74 µM).

Question: What about the MIC90 ([29]; K. pneumoniae (31 isolates)) of the same molecule?
Answer: The MIC90 was greater than 32 µg/mL.

Question: And the MIC ([29]; K. pneumoniae strain PBS # 266, tetD)?
Answer: The MIC was 64 µg/mL (≈ 140 µM).

Question: And the MIC50 [30]?
Answer: Its MIC50 is 16 µg/mL (≈ 35 µM).

Question: What about the MIC90 [30] of the same molecule?
Answer: Its MIC90 is greater than 32 µg/mL.

Question: And the MIC50 [31]?
Answer: The MIC50 was greater than 32 µg/mL.

Question: What about the MIC90 [31] of the same molecule?
Answer: Its MIC90 is greater than 32 µg/mL.
